Assay results as given in patent US4322496A, “Inhibition of lactate oxidase” (Eastman Kodak Company, priority 1980, dated 1982).
Where two headings read alike, the source gives them in different places.

Assays:
L-Lactate Oxidase = molecular target: T1, L-Lactate Oxidase (Enterococcus casseliflavus, UniProt C9AC47); experiment: biochemical; settings: for inhibition of the enzymatic activity of lactate oxidase: measured at 30° C.; for inhibition at 10000 µM: acid 10mM, read-out: LO % Inhibition
T1 sequence (C9AC47 1-367): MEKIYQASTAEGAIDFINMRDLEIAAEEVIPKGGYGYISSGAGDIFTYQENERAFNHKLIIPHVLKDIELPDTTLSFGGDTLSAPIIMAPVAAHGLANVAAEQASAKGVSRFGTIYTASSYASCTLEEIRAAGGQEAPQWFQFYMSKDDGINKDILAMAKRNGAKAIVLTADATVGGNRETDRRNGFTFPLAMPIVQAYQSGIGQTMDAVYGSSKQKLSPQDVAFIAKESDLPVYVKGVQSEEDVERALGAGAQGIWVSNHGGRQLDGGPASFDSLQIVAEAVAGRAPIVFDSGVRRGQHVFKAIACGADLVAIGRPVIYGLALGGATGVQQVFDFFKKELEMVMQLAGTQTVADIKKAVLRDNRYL
Method: (§1) In the examples, oxidative enzymes were prepared from Streptococcus faecium ATCC 12755. L-lactate oxidase was isolated from Streptococcus faecium as a 0-50% ammonium sulfate fraction as described in Esders et al., U.S. Pat. No. 4,166,763 issued Sept. 4, 1979. L-α-glycerophosphate oxidase was purified from Streptococcus faecium as described in Table V, of Research Disclosure Publication No. 16146 published Sept. 10, 1977.
In the examples, enzyme assays for lactate oxidase were carried out as follows: Assay reaction mixtures contained in a total volume of 1.0 ml: 100 μmoles potassium phosphate buffer, pH 7.0, 25 μmoles lactic acid, […] horseradish peroxidase (4.6 purpurogallin units), and 0.25 μmoles orthodianisidine. Compounds to be tested as potential inhibitors for lactate oxidase were added to the assay reaction mixtures as indicated in Example 1. Samples were equilibrated at 30° C. and then reactions were initiated by addition of Streptococcus faecium lactate oxidase. Absorbance at 430 nm was measured in a Beckman 25 spectrophotometer. Initial rates were calculated from the linear portion of the curve.

[1] = molecular target: T2, L-α-Glycerophosphate Oxidase (Enterococcus casseliflavus, UniProt O86963); experiment: L-α-glycerophosphate oxidase enzyme assay (absorbance at 430 nm); format: biochemical; settings: for inhibition at 5000 µM: compound at 5 mM, 37° C., pH 7.0, read-out: L-α-Glycerophosphate Oxidase Percent Inhibition
T2 construct: L-α-glycerophosphate oxidase was purified from Streptococcus faecium; made in house; host or cells: Streptococcus faecium ATCC 12755 (native organism, not recombinant)
T2 sequence (O86963 1-609): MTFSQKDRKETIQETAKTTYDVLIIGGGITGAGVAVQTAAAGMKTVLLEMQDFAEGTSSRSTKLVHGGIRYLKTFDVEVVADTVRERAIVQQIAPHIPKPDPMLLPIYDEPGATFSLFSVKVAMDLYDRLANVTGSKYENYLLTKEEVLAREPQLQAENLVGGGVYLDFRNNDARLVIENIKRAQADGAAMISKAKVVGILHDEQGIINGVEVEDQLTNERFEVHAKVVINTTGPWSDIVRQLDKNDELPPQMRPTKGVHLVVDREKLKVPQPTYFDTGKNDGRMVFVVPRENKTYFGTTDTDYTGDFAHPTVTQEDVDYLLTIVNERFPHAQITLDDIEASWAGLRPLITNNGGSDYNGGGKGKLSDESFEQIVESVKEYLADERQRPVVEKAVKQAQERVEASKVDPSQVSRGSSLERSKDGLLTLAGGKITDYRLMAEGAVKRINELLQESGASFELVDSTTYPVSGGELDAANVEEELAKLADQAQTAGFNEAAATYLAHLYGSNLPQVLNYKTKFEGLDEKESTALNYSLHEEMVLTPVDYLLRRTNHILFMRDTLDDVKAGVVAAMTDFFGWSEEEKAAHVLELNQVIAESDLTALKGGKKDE
Method: as §1, with “1977. Extensively purified L-α-glycerophosphate oxidase (material carried through the whole purification sequence) contained L-α-glycerophosphate:lactate oxidase activity ratios of (1700-3000:1), whereas the partially purified L-α-glycerophosphate oxidase (material isolated as the 50-80% ammonium sulfate fraction) contained L-α-glycerophosphate:lactate oxidase activity ratios of 30-100:1.” for “1977.”
In the examples, enzyme assays for L-α-glycerophosphate oxidase were carried out as follows: Assay reaction mixtures contained in a total volume of 1.0 ml: 100 μmoles potassium phosphate buffer, pH 7.0, 66 μg orthodianisidine, 25 μg horseradish peroxidase (4.6 purpuragallin units) and 200 μmoles DL-α-glycerophosphate (at pH 7.0). Compounds to be tested as potential inhibitors were added to the reaction mixtures as indicated in Example 1. Samples were equilibrated at 37° C. and the reactions were initiated by the addition of an aliquot of enzyme. Absorbance at 430 nm was measured in a Beckman 25 spectrophotometer. Initial rates were calculated from the linear portion of the curve.

[2] = molecular target: T3, beef meat lactate dehydrogenase (Bos taurus, UniProt P19858); experiment: LDH assay reaction mixture (pyruvate/NADH); format: biochemical; settings: acid 10 mM; pH 7.5
T3 construct: beef meat lactate dehydrogenase; from tissue; host or cells: beef meat (skeletal muscle)
Method: The effect of these acids on LO was evaluated by studying an LO assay reaction mixture having the composition described above. The effect of these acids on LDH was evaluated by studying an LDH assay reaction mixture which contained in a total volume of 1.0 ml: 50 μmoles potassium phosphate buffer (pH 7.5); 1 μmole sodium pyruvate; 0.13 μmole NADH; 0.02 μg beef meat lactate dehydrogenase (320 U/mg) and the acid at a concentration of 10 mM. In the absence of acid, the rate of reaction was assumed to be 100% and the percent inhibition of each reaction was calculated accordingly.

[3] = molecular target: T4, lactate oxidase activity in partially purified DL-α-glycerophosphate oxidase (Enterococcus casseliflavus, UniProt C9AC47); experiment: Lactate/serum blank reaction, solution mode; format: biochemical; settings: 10 min, 37° C.; for Response to Normal Serum ΔA490: 20 μl normal serum
T4 sequence (C9AC47 1-367): T1 sequence (C9AC47 1-367)
Method: Solution incubation mixtures contained in a total volume of 1.0 ml: 100 μmoles potassium phosphate buffer, pH 7.0, 0.12 mg 4-aminoantipyrene.HCl, 0.04 mg 1,7-dihydroxynaphthalene, 25 μg horseradish peroxidase (4.6 purpurogallin units), 0.36 units glycerol kinase, 4.6 units partially purified DL-α-glycerophosphate oxidase, and 10 mg Triton X-100. Reactions were initiated by addition of 20 μl of normal serum or 50 μl of 1 mM Dl-lactate, and after ten minutes at 37° C., the absorbance was measured at 490 nm. In each case, a reagent blank (all components except substrate) was subtracted to give the change in absorbance at 490 nm, ΔA490.

[4] = tested on: components of the triglyceride detection system; experiment: Response of dry chemistry triglyceride test elements to test fluids; settings: 81 or 405 mg/m^2 glycolate in element
Method: (§2) In the examples, non-fibrous, multilayer, "dry chemistry" analytical elements for determination of serum triglycerides were formulated having the following structure and composition: […]
The enzymatic reagent layer composition of the above-noted "dry chemistry" analytical element contained deionized gelatin (5.4 g/m^2); gel hardener (32.4 mg/m^2); poly(methyl acrylate-co-2-acrylamido-2-methylpropanesulfonic acid-co-2-acetoacetoxyethyl methacrylate) having a monomer weight ratio of (88.8:4.7:6.5) as peroxidase stabilizer (5.4 g/m^2); 0.05 M potassium phosphate buffer, pH 7.0; Triton X-100 surfactant (389 mg/m^2); 2-(3,5-dimethoxy-4-hydroxyphenyl)4,5-bis(4-dimethylaminophenyl)imidazole as a leuco dye (405 mg/m^2 dispersed in 2,4-di-n-amylphenol (4.05 g/m^2); antioxidant (324 mg/m^2); MgCl (103 mg/m^2); adenosinetriphosphate (1.35 g/m^2); peroxidase (7020 U/m^2); glycerol kinase (324 U/m^2); and either purified or partially purified L-α-glycerophosphate oxidase (2840 U/m^2). […]
Dry chemistry analytical elements (as described above) containing purified L-α-glycerophosphate oxidase and partially purified enzyme plus two different levels of glycolate were compared for response to serum triglycerides and glycerol. […] After a sevenminute incubation at 37° C., the reflection density, DR, at 540 nm was measured through the element support. […]

[5] = molecular target: T5, lactate oxidase activity in partially purified L-α-glycerophosphate oxidase (Enterococcus casseliflavus, UniProt C9AC47); experiment: Lactate blank reaction in dry chemistry triglyceride test element; format: biochemical; settings: for Response to Lactate (DR): partially purified α-GPO, 10 μl DL-lactate 20 mg/dl, 540 nm, 7 min, 37° C.
T5 sequence (C9AC47 1-367): T1 sequence (C9AC47 1-367)
Method: as §2
The enzymatic reagent layer composition of the above-noted "dry chemistry" analytical element contained deionized gelatin (5.4 g/m^2); gel hardener (32.4 mg/m^2); poly(methyl acrylate-co-2-acrylamido-2-methylpropanesulfonic acid-co-2-acetoacetoxyethyl methacrylate) having a monomer weight ratio of (88.8:4.7:6.5) as peroxidase stabilizer (5.4 g/m^2); 0.05 M potassium phosphate buffer, pH 7.0; Triton X-100 surfactant (389 mg/m^2); 2-(3,5-dimethoxy-4-hydroxyphenyl)4,5-bis(4-dimethylaminophenyl)imidazole as a leuco dye (405 mg/m^2 dispersed in 2,4-di-n-amylphenol (4.05 g/m^2); antioxidant (324 mg/m^2); MgCl (103 mg/m^2); adenosinetriphosphate (1.35 g/m^2); peroxidase (7020 U/m^2); glycerol kinase (324 U/m^2); and either purified or partially purified L-α-glycerophosphate oxidase (2840 U/m^2). When the partially purified L-α-glycerophosphate oxidase was used, glycolate was incorporated into that layer in the amounts noted below in Example 2.
A. Dry Chemistry Test Element Mode: Dry chemistry analytical elements for the determination of triglycerides were prepared with either the purified or partially purified L-α-GPO as described above. To each element, a 10 μl sample of DL-lactate (20 mg/dl) was applied and the reflection density of the element, DR, at 540 nm was measured through the element support after a seven-minute incubation at 37° C.

[6] = compound at 5 mM, 30° C., pH 7.0, rate without compound = 100%, read-out: L-Lactate Oxidase Percent Inhibition
[7] = pH 7, read-out: L-Lactate Oxidase Percent Inhibition

Structure (SMILES) | inhibition at 5000 µM (L-Lactate Oxidase; [6]) | inhibition of the enzymatic activity of lactate oxidase (L-Lactate Oxidase) | inhibition of lactate oxidase activity (in words) (L-Lactate Oxidase) | further results
O=C(O)CCC(=O)C(=O)O [α-Ketoglutaric Acid] | – | – | little or no inhibition | inhibition at 5000 µM (L-Lactate Oxidase; [7]): 0%
O=CC(=O)O [Glyoxalic Acid] | 100% | – | inhibited the enzyme | inhibition of L-α-GPO (in words) [1]: inhibited L-α-GPO as well; inhibition at 5000 µM [1]: 100%; inhibition at 10000 µM [2]: 15%; inhibition at 10000 µM (L-Lactate Oxidase): 100%
O=C(O)CO [Glycolic Acid] | 90% | – | greatly inhibit | Response to Normal Serum ΔA490 ([3]; glycolate 1 mM): 0.006; Response to 50 μM DL-Lactate ΔA490 ([3]; glycolate 1 mM): 0.008; Response to Normal Serum ΔA490 ([3]; glycolate 2 mM): 0; Response to 50 μM DL-Lactate ΔA490 ([3]; glycolate 2 mM): 0; Response to Normal Serum ΔA490 ([3]; glycolate 3 mM): 0; Response to 50 μM DL-Lactate ΔA490 ([3]; glycolate 3 mM): 0; inhibition of L-α-GPO (in words) [1]: do not inhibit; inhibition at 5000 µM [1]: 0%; inhibition at 10000 µM [2]: 11%; inhibition of the components of the triglyceride detection system (in words) [4]: did not inhibit any of the components of the triglyceride detection system; lactate blank relative to control (purified α-GPO) ([5]; 81 mg/m^2 glycolic acid): 1.6 times control; Response to Lactate (DR) ([5]; 81 mg/m^2 glycolic acid): 0.04; reaction with lactate compared with control (purified α-GPO) ([5]; 405 mg/m^2 glycolic acid): less than that observed with the purified L-α-glycerophosphate oxidase; Response to Lactate (DR) ([5]; 405 mg/m^2 glycolic acid): 0.01; inhibition at 10000 µM (L-Lactate Oxidase): 90%
NC(=O)C(N)=O [Oxamide] | 43% | < 50% | – | –
CC(O)CC(=O)O (stereo not drawn) [β-Hydroxybutyric Acid] | 0% | – | little or no inhibition | –
COCC(=O)O [Methoxyacetic Acid] | – | – | little or no inhibition | inhibition at 5000 µM (L-Lactate Oxidase; [7]): 0%
CC(O)C(N)=O (stereo not shown) [Lactamide] | 0% | – | little or no inhibition | –
NCC(=O)O [Glycine] | – | – | little or no inhibition | inhibition at 5000 µM (L-Lactate Oxidase; [7]): 0%

Second part, led by results:

inhibition at 5000 µM (L-Lactate Oxidase; [6]) | inhibition of the enzymatic activity of lactate oxidase (L-Lactate Oxidase) | inhibition of lactate oxidase activity (in words) (L-Lactate Oxidase) | Structure (SMILES) | further results
7% | < 50% | – | CCC(O)C(=O)O (stereo not drawn) [α-Hydroxybutyric Acid] | –
30% | < 50% | – | O=C(O)CC(=O)O [Malonic Acid] | –
0% | – | little or no inhibition | O=C(O)CC(O)C(=O)O (stereo not shown) [Malic Acid] | –
21% | < 50% | – | O=C(O)C(O)CO (racemic) [Glyceric Acid] | –
94% | – | greatly inhibit | O=C(O)C(=O)O [Oxalic Acid] | inhibition of L-α-GPO (in words) [1]: do not inhibit; inhibition at 5000 µM [1]: 0%; inhibition at 10000 µM [2]: 100%; inhibition at 10000 µM (L-Lactate Oxidase): 94%
40% | < 50% | – | NC(=O)C(=O)O [Oxamic Acid] | –
10% | – | – | O=C(O)C(O)C(=O)O [Tartronic Acid] | –
